From PMC5077133, “Towards Development of Small Molecule Lipid II Inhibitors as Novel Antibiotics” (PLoS ONE, 2016)

Legend:
[1] = test system: E. faecalis (n=5) clinical isolates; assay: Activity against Enterococcus spp. (MIC); format: cell-based; details: clinical isolates sensitive to linezolid and daptomycin
Protocol: (§1) Determination of the Minimal Inhibitory Concentrations (MIC) by dilution was carried out by broth dilution according to CLSI standards.

[2] = test system: A. baumanii ATCC 19606; assay: Antibacterial activity (MIC, broth dilution); format: cell-based, Acinetobacter baumanii; details: CLSI, in µg/mL
Method in brief: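 MIC determined by broth dilution following CLSI standards, using A. baumanii ATCC 19606.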

[3] = test system: E. aerogenes ATCC 13048; assay: Antibacterial activity (MIC, broth dilution); format: cell-based; details: CLSI
Protocol: as §1

[4] = test system: E. cloacae ATCC 13047; assay: Antibacterial activity (MIC, broth dilution); format: cell-based; details: CLSI
Protocol: as §1

[5] = test system: E. faecium EF1509 (VRE); assay: Antibacterial activity (MIC, broth dilution); format: cell-based; details: CLSI, in µg/mL
Protocol: as §1

[6] = test system: E. faecium F118 (VRE); assay: Antibacterial activity (MIC, broth dilution); format: cell-based; details: CLSI, in µg/mL
Protocol: as §1

[7] = test system: K. pneumoniae NR-15410 (KPC); assay: Antibacterial activity (MIC, broth dilution); format: cell-based; details: CLSI
Protocol: as §1

[8] = test system: K. pneumoniae NR-15411 (KPC); assay: Antibacterial activity (MIC, broth dilution); format: cell-based; details: CLSI
Protocol: as §1

[9] = test system: P. aeruginosa ATCC 27853; assay: Antibacterial activity (MIC, broth dilution); format: cell-based; details: CLSI
Protocol: as §1

[10] = test system: P. aeruginosa PA01; assay: Antibacterial activity (MIC, broth dilution); format: cell-based; details: CLSI
Protocol: as §1

[11] = test system: P. aeruginosa X13273; assay: Antibacterial activity (MIC, broth dilution); format: cell-based; details: CLSI, in µg/mL
Protocol: as §1

[12] = test system: S. aureus HFH-30123 (MRSA); assay: Antibacterial activity (MIC, broth dilution); format: cell-based; details: CLSI
Protocol: as §1

[13] = test system: S. aureus MRSA 1094; assay: Antibacterial activity (MIC, broth dilution); format: cell-based; details: CLSI
Protocol: as §1

[14] = test system: HeLa cells; assay: Cytotoxicity against mammalian cells (MTS assay); format: cell-based
Method in brief: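 HeLa cells exposed 72 h in RPMI1640 to compounds at 64 to 0.125 μg/ml, in triplicate. Viability measured as mitochondrial activity by MTS, and CC50 taken against a standard curve of serially diluted untreated cells.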

[15] = Lipid II binding by Surface Plasmon Resonance; details: SPR, immobilized 3-Lipid II, 25°C
Method in brief: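 Farnesyl (3-isoprene) Lipid II amine-coupled (50 RUs) on CM5 chips. Compounds injected at 10 μM, 30 μl/min, 25°C, in 10 mM HEPES, 150 mM NaCl, 0.05% P20, pH 7.4 (± 3 mM EDTA), 10% DMSO. Signals corrected against control flow-cell; kinetics fitted from binding isotherms.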

[16] = Liver microsome stability; format: in vitro ADME; details: human, human liver microsomes, pH 7.4
Protocol: The in vitro microsome stability assay was performed using human liver microsomes and a Biomek FXP liquid handling workstation to deliver reagents to a 96 deep well plate on a shaking peltier with temperature controls. Human liver microsomes were purchased from Corning®. The test compound was incubated in an aqueous reaction mixture (200 ul total volume) consisting of human liver microsomes (150 mixed donor pool) and NADPH Regenerating System Solutions A and B (Corning®) in the presence of 100 mM potassium phosphate buffer (pH 7.4). The NADPH solution A comprises nicotinamide adenine dinucleotide phosphate (NADP+) and glucose 6-phosphate and solution B contains glucose-6-phosphate dehydrogenase. Solutions A and B were combined prior to adding to the reaction plate to generate a supply of NADPH. The NADPH was added last to simultaneously initiate the reactions. The final concentration of the test compound was 10 uM and the microsomal protein concentration was 0.5 mg/ml. After incubation at 37°C, the reaction was terminated at 0, 5, 10, 20, 30, 40, 50 and 60 minutes, respectively, by the addition of 600 uL of acetonitrile. Three replicates were run for each time point. The quenched reaction plate was centrifuged at 4500 rpm for 10 minutes. The supernatant was diluted 1:2 in 30% Methanol in water for LC/MS/MS analyses to monitor substrate depletion. Water was substituted for NADPH for the zero time-point samples. A control plate, without NADPH cofactor, was completed on the same day, using the same conditions.
The half-life (t1/2) was obtained using the equation below: t1/2=−0.693/slope
Where slope is the slope of the line formed by ln(% remaining test compound) vs. time. The in vitro intrinsic clearance (CLint) value was calculated using equation: CLint=(0.693/t1/2)(incubation volume(ul)/total microsomal protein(mg))

[17] = test system: Enterococcus faecalis EF1509; assay: Murine peritoneal sepsis model; format: in vivo, C57BL/6J mice; details: 6jc48-1 100 mg/kg, ampicillin 300 mg/kg
Excerpt: Care of the mice met or exceeded the standards set forth by the National Institute of Health Guide for the care and use of laboratory animals and the AVMA panel on Euthanasia. All procedures in this study have been approved by the Institutional Animal Care and Use Committee (IACUC) at the University of Maryland Baltimore School of Medicine (Protocol number 02122005). Adult C57BL/6J mice (~18 grams, 8–10 weeks old) were used for all experiments. Mice were obtained from the Jackson Laboratory (Bar Harbor, Maine, USA) and housed in the IHV SPC animal core facility. Mice were fed standard chow (Harlan Laboratories) and water ad libitum. […] Infected animals (n = 5) were subsequently treated by intraperitoneal injection 30 min post-infection with 100 mg/kg of compound in 300 μL sterile saline solution, 5% Tween 80, 10% DMSO (V/V), ampicillin (300mg/kg), or vehicle (sterile saline solution, 5% Tween 80, 10% DMSO (V/V)) as positive and negative controls, respectively. Animals were closely observed during a period of 24 h and mice that show signs of severe sepsis were humanely euthanized. Mice were anesthetized by intraperitoneal injection of ketamine (80-100mg/kg) and xylazine (10–15 mg/kg). Once sedated, blood was collected by cardiac puncture. Immediately after blood collection the mice were euthanized by cervical dislocation. Spleens were harvested aseptically, weighed and homogenized in 500 μl of sterile saline solution using an IKA T10 basic disperser (IKA, Wilmington NC). Spleen homogenates were serially diluted and plated onto BHI agar plates. Bacterial counts were determined following 24 h incubation at 37°C and expressed as CFU per gram for spleen.
We established a murine model for sepsis to evaluate the efficacy of 6jc48-1 as an antibiotic agent in vivo. […] Based on the data obtained in the pharmacokinetic analysis, mice (n = 5) were inoculated intraperitoneally with E. faecalis EF1509 (~5 x 10^8 CFU/ animal) and treated after 30 min with compound 6jc48-1 (100 mg/kg IP), ampicillin (300 mg/kg IP) or vehicle. Animals were monitored for survival and after 24 h spleen samples were collected and analyzed for the presence of bacteria. Bacterial counts were determined by plating serial dilutions on BHI agar plates and compared to control treatment with ampicillin as measures of efficacy (Fig 5).

SMILES | Activity (MIC) E. faecalis (n=5) clinical isolates [1] | Antibacterial activity (MIC) A. baumanii ATCC 19606 [2] | Antibacterial activity (MIC) E. aerogenes ATCC 13048 [3] [µg/mL] | Antibacterial activity (MIC) E. cloacae ATCC 13047 [4] [µg/mL] | Antibacterial activity (MIC) E. faecium EF1509 (VRE) [5] | Antibacterial activity (MIC) E. faecium F118 (VRE) [6] | Antibacterial activity (MIC) K. pneumoniae NR-15410 (KPC) [7] [µg/mL] | Antibacterial activity (MIC) K. pneumoniae NR-15411 (KPC) [8] [µg/mL] | Antibacterial activity (MIC) P. aeruginosa ATCC 27853 [9] [µg/mL] | Antibacterial activity (MIC) P. aeruginosa PA01 [10] [µg/mL] | Antibacterial activity (MIC) P. aeruginosa X13273 [11] | Antibacterial activity (MIC) S. aureus HFH-30123 (MRSA) [12] [µg/mL] | Antibacterial activity (MIC) S. aureus MRSA 1094 [13] [µg/mL] | CC50% (72 h HeLa cells) [14] | Kd [15] [nM] | microsomal CLint at 10 uM ([16]; read-out: Liver microsome intrinsic clearance (positive control)) [µL/min/mg] | half-life at 10 uM ([16]; read-out: Liver microsome t1/2 (positive control)) [min] | Bacterial counts in spleen ([17]; IP treatment 30 min post-infection, spleen collected after 24 h) | Survival of infected animals ([17]; n = 5, IP treatment 30 min post-infection, length of the experiment (24 h))
CN[C@H](CC(C)C)C(=O)N[C@H]1C(=O)N[C@@H](CC(N)=O)C(=O)N[C@H]2C(=O)N[C@H]3C(=O)N[C@H](C(=O)N[C@H](C(=O)O)c4cc(O)cc(O)c4-c4cc3ccc4O)[C@H](O)c3ccc(c(Cl)c3)Oc3cc2cc(c3O[C@@H]2O[C@H](CO)[C@@H](O)[C@H](O)[C@H]2O[C@H]2C[C@](C)(N)[C@H](O)[C@H](C)O2)Oc2ccc(cc2Cl)[C@H]1O [Vancomycin] | >32 |  |  |  |  |  |  |  |  |  |  |  |  |  |  |  |  |  | 
CCc1ccc(-c2cc(/C=C/c3cn(C)c4ccccc34)[o+]c(-c3ccc(CC)cc3)c2)cc1.F[B-](F)(F)F [6jc66-2] |  | 64 | ≥ 64 | ≥ 64 | 4 | 5.66 | 64 | ≥ 64 | ≥ 64 | ≥ 64 | >=64 | 4 | 4 | 1.42 | 1600 ± 200 |  |  |  | 
COc1ccc2c(c1)[C@]13CCCC[C@@H]1[C@H](C2)N(C)CC3 [dextromethorphan, reference compound] |  |  |  |  |  |  |  |  |  |  |  |  |  |  |  | 31 | 40 |  | 
Clc1ccc(-c2cc(/C=C/c3cc4c5c(c3)CCCN5CCC4)[o+]c(-c3ccc(Cl)cc3)c2)cc1.F[B-](F)(F)F [6jc-69-4] |  | >=64 | ≥ 64 | ≥ 64 | 4 | 5.66 | ≥ 64 | ≥ 64 | ≥ 64 | ≥ 64 | >=64 | 8 | 8 | 3.09 | 30300 ± 500 |  |  |  | 
Cc1ccc(-c2cc(/C=C/c3cc4c5c(c3)CCCN5CCC4)[o+]c(-c3ccc(C)cc3)c2)cc1.F[B-](F)(F)F [6jc65-1] |  | 11.31 | 32 | 64 | 2 | 4 | 64 | ≥ 64 | 64 | 64 | 64 | 2 | 2.83 | <.78125 | 2170 ± 200 |  |  |  | 
CC1(C)S[C@@H]2[C@H](NC(=O)[C@H](N)c3ccccc3)C(=O)N2[C@H]1C(=O)O [ampicillin, reference compound] |  |  |  |  |  |  |  |  |  |  |  |  |  |  |  |  |  | significant bacterial clearance | all animals
